Assay results published in ChEMBL document CHEMBL1201862, “PubChem BioAssay data set” (2004).
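Following 48 hours of exposure in 96-well plates, responses at five concentrations were used to interpolate endpoints linearly. GI50: concentration for 50% inhibition of growth.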 Calls of active or inactive are those of the source. No stated cut-off is given here; in the data, active = GI50 up to about 1.1 µM and inactive = higher.

Experiments:
Test in all cases: DTP human tumour cell line panel, 48 h
MOLT-4 = test system: MOLT-4
SK-MEL-28 = test system: SK-MEL-28
NCI-H522 = test system: NCI-H522
A549 = test system: A549
OVCAR-8 = test system: OVCAR-8
HL-60 = test system: HL-60
T47D = test system: T47D
MCF7 = test system: MCF7
OVCAR-3 = test system: OVCAR-3
SW-620 = test system: SW-620
SNB-75 = test system: SNB-75
HCT-116 = test system: HCT-116
BT-549 = test system: BT-549
SF-295 = test system: SF-295
EKVX = test system: EKVX
Malme-3M = test system: Malme-3M
786-0 = test system: 786-0
CAKI-1 = test system: CAKI-1
SK-MEL-5 = test system: SK-MEL-5
KM12 = test system: KM12
COLO 205 = test system: COLO 205
K562 = test system: K562
HT-29 = test system: HT-29
UACC-257 = test system: UACC-257
CCRF-CEM = test system: CCRF-CEM
UO-31 = test system: UO-31
UACC-62 = test system: UACC-62
RXF 393 = test system: RXF 393
IGROV-1 = test system: IGROV-1
LOX IMVI = test system: LOX IMVI
SF-268 = test system: SF-268
HCT-15 = test system: HCT-15
OVCAR-5 = test system: OVCAR-5
SK-MEL-2 = test system: SK-MEL-2
SK-OV-3 = test system: SK-OV-3
Hs-578T = test system: Hs-578T
NCI-H226 = test system: NCI-H226
U-251 = test system: U-251
HOP-92 = test system: HOP-92
SF-539 = test system: SF-539
M14 = test system: M14
MDA-N = test system: MDA-N
SN12C = test system: SN12C
A498 = test system: A498
RPMI-8226 = test system: RPMI-8226
HCC 2998 = test system: HCC 2998
DU-145 = test system: DU-145
SR = test system: SR
MDA-MB-231 = test system: MDA-MB-231
NCI-H460 = test system: NCI-H460
PC-3 = test system: PC-3
ACHN = test system: ACHN
SNB-19 = test system: SNB-19
HOP-62 = test system: HOP-62
MDA-MB-435 = test system: MDA-MB-435
TK-10 = test system: TK-10
NCI-H23 = test system: NCI-H23
OVCAR-4 = test system: OVCAR-4

## CC1C(NNc2ccccc2)Oc2cc3c(cc2C1c1ccccc1O)OCO3 (stereo not drawn)
MOLT-4
  GI50: 3.17 µM (inactive)
SK-MEL-28
  GI50: 12.3 µM (inactive)
NCI-H522
  GI50: 0.575 µM (active)
A549
  GI50: 2.93 µM (inactive)
OVCAR-8
  GI50: 10 µM (inactive)
HL-60
  GI50: 4.01 µM (inactive)
T47D
  GI50: 2.77 µM (inactive)
MCF7
  GI50: 3.94 µM (inactive)
OVCAR-3
  GI50: 11.8 µM (inactive)
SW-620
  GI50: 13.7 µM (inactive)
SNB-75
  GI50: 10.1 µM (inactive)
HCT-116
  GI50: 4.69 µM (inactive)
BT-549
  GI50: 14.2 µM (inactive)
SF-295
  GI50: 0.632 µM (active)
EKVX
  GI50: 10.9 µM (inactive)
Malme-3M
  GI50: 3.47 µM (inactive)
786-0
  GI50: 5.53 µM (inactive)
CAKI-1
  GI50: 0.962 µM (active)
SK-MEL-5
  GI50: 11.6 µM (inactive)
KM12
  GI50: 0.741 µM (active)
COLO 205
  GI50: 11.3 µM (inactive)
K562
  GI50: 0.444 µM (active)
HT-29
  GI50: 6.03 µM (inactive)
UACC-257
  GI50: 6.89 µM (inactive)
CCRF-CEM
  GI50: 1.4 µM (inactive)
UO-31
  GI50: 1.59 µM (inactive)
UACC-62
  GI50: 1.44 µM (inactive)
RXF 393
  GI50: 15.7 µM (inactive)
IGROV-1
  GI50: 1.7 µM (inactive)
LOX IMVI
  GI50: 12.5 µM (inactive)
SF-268
  GI50: 12.2 µM (inactive)
HCT-15
  GI50: 1.7 µM
OVCAR-5
  GI50: 4.61 µM (inactive)
SK-MEL-2
  GI50: 10.9 µM (inactive)
SK-OV-3
  GI50: 10.5 µM (inactive)
Hs-578T
  GI50: 14.3 µM (inactive)
NCI-H226
  GI50: 12.8 µM (inactive)
U-251
  GI50: 10.1 µM (inactive)
HOP-92
  GI50: 13.5 µM (inactive)
SF-539
  GI50: 2.01 µM (inactive)
M14
  GI50: 1.93 µM (inactive)
MDA-N
  GI50: 4.06 µM (inactive)
SN12C
  GI50: 5.79 µM (inactive)
A498
  GI50: 15.7 µM (inactive)
RPMI-8226
  GI50: 4.07 µM (inactive)
HCC 2998
  GI50: 4.56 µM (inactive)
DU-145
  GI50: 3.89 µM (inactive)
SR
  GI50: 0.284 µM (active)
MDA-MB-231
  GI50: 13.4 µM (inactive)
NCI-H460
  GI50: 2.81 µM (inactive)
PC-3
  GI50: 3.2 µM (inactive)
ACHN
  GI50: 0.962 µM (active)
SNB-19
  GI50: 14.3 µM (inactive)
HOP-62
  GI50: 3.1 µM (inactive)
MDA-MB-435
  GI50: 0.946 µM (active)
TK-10
  GI50: 4.81 µM (inactive)
NCI-H23
  GI50: 12.8 µM (inactive)

## COc1ccc(NC(=O)C2=C(SC)C(C#N)C(=O)N=C2N)cc1 (stereo not drawn)
MOLT-4
  GI50: 55.3 µM (inactive)
SK-MEL-28
  GI50: > 100 µM (inactive)
NCI-H522
  GI50: 15.1 µM (inactive)
A549
  GI50: > 100 µM (inactive)
HL-60
  GI50: 31.2 µM (inactive)
T47D
  GI50: 49.4 µM (inactive)
MCF7
  GI50: > 100 µM (inactive)
OVCAR-3
  GI50: > 100 µM (inactive)
SW-620
  GI50: 67.1 µM (inactive)
HCT-116
  GI50: > 100 µM (inactive)
BT-549
  GI50: > 100 µM (inactive)
SF-295
  GI50: > 100 µM (inactive)
EKVX
  GI50: > 100 µM (inactive)
Malme-3M
  GI50: 26.9 µM (inactive)
786-0
  GI50: 65.8 µM (inactive)
CAKI-1
  GI50: 46.3 µM (inactive)
SK-MEL-5
  GI50: > 100 µM (inactive)
KM12
  GI50: 0.369 µM (active)
COLO 205
  GI50: 55.7 µM (inactive)
K562
  GI50: 54.3 µM (inactive)
HT-29
  GI50: > 100 µM (inactive)
OVCAR-4
  GI50: > 100 µM (inactive)
UACC-257
  GI50: > 100 µM (inactive)
CCRF-CEM
  GI50: 25.7 µM (inactive)
UO-31
  GI50: 72.1 µM (inactive)
UACC-62
  GI50: > 100 µM (inactive)
RXF 393
  GI50: > 100 µM (inactive)
IGROV-1
  GI50: 20.3 µM (inactive)
LOX IMVI
  GI50: > 100 µM (inactive)
SF-268
  GI50: > 100 µM (inactive)
HCT-15
  GI50: > 100 µM
OVCAR-5
  GI50: > 100 µM (inactive)
SK-MEL-2
  GI50: > 100 µM (inactive)
SK-OV-3
  GI50: > 100 µM (inactive)
Hs-578T
  GI50: 89.1 µM (inactive)
NCI-H226
  GI50: > 100 µM (inactive)
U-251
  GI50: > 100 µM (inactive)
HOP-92
  GI50: 14 µM (inactive)
SF-539
  GI50: > 100 µM (inactive)
M14
  GI50: > 100 µM (inactive)
MDA-N
  GI50: > 100 µM (inactive)
SN12C
  GI50: > 100 µM (inactive)
A498
  GI50: > 100 µM (inactive)
RPMI-8226
  GI50: > 100 µM (inactive)
HCC 2998
  GI50: > 100 µM (inactive)
DU-145
  GI50: > 100 µM (inactive)
SR
  GI50: > 100 µM (inactive)
MDA-MB-231
  GI50: > 100 µM (inactive)
NCI-H460
  GI50: > 100 µM (inactive)
PC-3
  GI50: > 100 µM (inactive)
ACHN
  GI50: > 100 µM (inactive)
SNB-19
  GI50: > 100 µM (inactive)
HOP-62
  GI50: > 100 µM (inactive)
MDA-MB-435
  GI50: > 100 µM (inactive)
TK-10
  GI50: > 100 µM (inactive)
NCI-H23
  GI50: > 100 µM (inactive)
